{"source": "patent US4952234A", "about": "“Imidazoledione compounds useful as herbicides” (Sankyo Company Limited, priority 1985, dated 1990)", "key": {"[1]": {"tested_on": "Komatsuna seeds", "test": "Inhibitory effect on the germination of Komatsuna seeds", "assay_type": "in vivo, Brassica rapa (L) var. Komatsuna Hara", "details": "Brassica rapa, 72 h; 28° C. for 3 days; read-out: minimum inhibitory concentration against the germination of Komatsuna seeds", "experimental": "Sterilized cotton was placed on the bottom of a test tube (10 mm×100 mm) to a height of about 5 mm, and the cotton was then soaked with 0.5 ml of either distilled water or of an aqueous solution containing various concentrations of Substance No. 51262. About 10 seeds of the plant Komatsuna [Brassica rapa (L) var. Komatsuna Hara] were placed into each test tube and allowed to stand at 28° C. for 3 days to determine the inhibitory concentration of Substance No. 51262, assessed by the presence or absence of germination."}, "[2]": {"tested_on": "various weeds", "test": "Herbicidal activity against weeds, pre- and post-emergence (summary statement)", "assay_type": "in vivo"}, "[3]": {"test": "Solubility", "assay_type": "physicochemical", "text": "(j) solubility: soluble in water, methanol and ethanol; insoluble in ethyl acetate and acetone;"}, "[4]": {"tested_on": "mice", "details": "mouse, in vivo, iv, 100 mg/kg", "experimental": "A solution of Substance No. 51262 was administered intravenously to mice in an amount of 100 mg/kg bodyweight."}, "[5]": {"tested_on": "purple nutsedge", "test": "Plant growth retardation, purple nutsedge", "assay_type": "in vivo, Cyperus rotundus", "details": "500 ppm; after 2 weeks vs untreated control", "text": "(§1) A plastic pot was filled with upland soil to provide a surface area of soil of 150 cm^2. Seeds of paddy field rice, soybeans corn and cotton were sowed, Tubers of the perennial weed, purple nutsedge (Cyperus rotundus) were then planted into each pot and the seeds and tubers were covered with the same soil. The pots were placed in a greenhouse for 10 days, after which aqueous solutions of Substance No. 51262 (prepared as described hereafter in Example 11) to the required concentrations were mixed with 0.03% v/v of the spreader Gramin S. 5 ml of the resulting solution were sprayed onto each pot. The growth of the resulting plants were compared after 2 weeks with a control which had not been so treated."}, "[6]": {"tested_on": "paddy field rice, soybeans, corn, cotton and purple nutsedge", "test": "Plant growth retardation", "assay_type": "in vivo", "text": "as §1"}}, "data": [{"smiles": "O=C1NC(=O)[C@@]2(N1)O[C@H](CO)[C@@H](O)[C@H]2O", "note": "[Substance No. 51262]", "values": [{"measurement": "minimal effective concentration", "setting": "[1]", "result": 3.13, "unit": "µg/mL"}, {"measurement": "herbicidal activity", "setting": "[2]", "result": "excellent herbicidal activity"}, {"measurement": "solubility", "setting": "[3]; acetone", "result": "insoluble"}, {"measurement": "solubility", "setting": "[3]; ethanol", "result": "soluble"}, {"measurement": "solubility", "setting": "[3]; ethyl acetate", "result": "insoluble"}, {"measurement": "solubility", "setting": "[3]; methanol", "result": "soluble"}, {"measurement": "solubility", "setting": "[3]; water", "result": "soluble"}, {"measurement": "abnormalities observed", "setting": "[4]", "result": "no abnormalities were detected"}, {"measurement": "growth inhibition of the shoot and rhizome", "setting": "[5]", "result": "almost complete growth inhibition"}, {"measurement": "growth retardation", "setting": "[6]; 125 ppm, all plants, after 2 weeks vs untreated control", "result": "about 50%"}, {"measurement": "plant growth retardation", "setting": "[6]; summary statement", "result": "can retard plant growth without killing the plants"}]}]}
